Source: US8362000B2, “Azetidinyl diamides as monoacylglycerol lipase inhibitors” (Janssen Pharmaceutica NV, priority 2009, dated 2013)
Changes are numbered by the printed parent chain. Read-outs that look alike come from different tables or passages of the source.

Experiments:
MGL = molecular target: T1, MGL (Rattus norvegicus, UniProt Q8R431); experiment: 2-AG accumulation assay in rat brain homogenate; type: biochemical; settings: rat brain homogenate, 2-AG accumulation as percent of vehicle; for 2-AG accumulation, % of vehicle control at 1 µM: compound 1 μM, read-out: Rat Brain 2AG % VehCntrl (%) @ 1 μM; for 2-AG accumulation, % of vehicle control at 10 µM: compound 10 μM, read-out: Rat Brain 2AG % VehCntrl (%) @ 10 μM
T1 construct: one g rat brain was homogenized using a Polytron homogenizer; from tissue; host or cells: rat brain homogenate
T1 sequence (Q8R431 1-303): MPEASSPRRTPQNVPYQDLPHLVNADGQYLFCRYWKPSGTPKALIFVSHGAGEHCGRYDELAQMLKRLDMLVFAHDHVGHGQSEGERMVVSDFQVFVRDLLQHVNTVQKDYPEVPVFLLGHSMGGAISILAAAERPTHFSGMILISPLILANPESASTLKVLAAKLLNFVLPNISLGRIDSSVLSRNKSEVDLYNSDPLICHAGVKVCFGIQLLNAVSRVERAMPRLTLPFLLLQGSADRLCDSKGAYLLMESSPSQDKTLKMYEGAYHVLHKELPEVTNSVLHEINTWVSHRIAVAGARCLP

mutant MGL = molecular target: T2, mutant MGL (Homo sapiens, UniProt Q99685, L169S/L176S); experiment: MGL ThermoFluor assay - mutant; type: binding
T2 sequence (Q99685 1-303 L169S/L176S): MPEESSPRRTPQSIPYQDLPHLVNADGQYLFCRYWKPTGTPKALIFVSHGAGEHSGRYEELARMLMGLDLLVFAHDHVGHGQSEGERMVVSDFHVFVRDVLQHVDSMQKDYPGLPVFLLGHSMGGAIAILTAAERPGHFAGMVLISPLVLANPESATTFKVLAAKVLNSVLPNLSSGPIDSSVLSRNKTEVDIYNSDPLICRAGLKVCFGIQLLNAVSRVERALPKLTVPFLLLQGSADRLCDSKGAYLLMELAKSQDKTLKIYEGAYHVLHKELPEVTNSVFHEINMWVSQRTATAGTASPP

[1] = molecular target: T3, purified wild type MGL (wt-MGLL 6H-11-313) (Homo sapiens, UniProt Q99685)
T3 sequence (Q99685 1-303): T2 sequence (Q99685 1-303 L169S/L176S) with S169L, S176L

[2] = ThermoFluor concentration-response, read-out: MGL mutant ThermoFluor Kd
[3] = ThermoFluor, compound concentration measured by qNMR, read-out: MGL mutant ThermoFluor qKd (μM) (using qNMR conc.)
[4] = ThermoFluor thermal stability binding assay, read-out: MGL mutant ThermoFluor Kd
[5] = ThermoFluor, compound concentration measured by qNMR, read-out: MGL mutant ThermoFluor qKd (using qNMR conc.)

Row | SMILES | 2-AG accumulation, % of vehicle control at 1 µM (MGL) | Kd (mutant MGL; [2]) | IC50 [1] | 2-AG accumulation, % of vehicle control at 10 µM (MGL) | Kd (mutant MGL; [3]) | Kd (mutant MGL; [4]) | Kd (mutant MGL; [5]) | 2-AG accumulation, % of vehicle control at 0.1 µM (MGL; compound 0.1 μM, read-out: Rat Brain 2AG % VehCntrl (%) @ 0.1 μM)
1 | O=C(c1ccc(-c2ccccc2)cc1)N1CC(N2CCN(C(=O)c3cccs3)CC2)C1 [Cpd 13, 1-[1-(Biphenyl-4-ylcarbonyl)azetidin-3-yl]-4-(thiophen-2-ylcarbonyl)piperazine] | – | 0.003 µM | 19.2 nM | 730% | – | – | – | –
2 | Cc1ccc2sc(C(=O)N3CC(N4CCN(C(=O)c5nccs5)CC4)C3)c(C(F)(F)F)c2c1 [Cpd 691, 1-(1-{[5-Methyl-3-(trifluoromethyl)-1-benzothiophen-2-yl]carbonyl}azetidin-3-yl)-4-(1,3-thiazol-2-ylcarbonyl)piperazine] | 840% | 0.004 µM | 46 nM | – | – | – | – | –
3 | O=C(c1nccs1)N1CCN(C2CN(C(=O)c3nn(-c4ccc(Cl)cc4Cl)c4c3CSC/C4=C\c3ccc(F)cc3)C2)CC1 [Cpd 1021] | 232% | 0.239 µM | 15 nM | – | – | – | – | –
4 | O=C(c1ccc(Sc2cccc(C(F)(F)F)c2)cc1)N1CC(N2CCN(C(=O)c3cscn3)CC2)C1 [Cpd 432] | 321% | 0.025 µM | < 5 nM | – | – | – | – | –
5 | Cc1cc(-c2ccc(Cl)c(C(F)(F)F)c2)ccc1C(=O)N1CC(N2CCN(C(=O)c3cscn3)CC2)C1 [Cpd 254, 1-(1-{[4′-Chloro-3-methyl-3′-(trifluoromethyl)biphenyl-4-yl]carbonyl}azetidin-3-yl)-4-(1,3-thiazol-4-ylcarbonyl)piperazine] | 544% | – | < 5 nM | – | – | 0.0059 µM | – | –
6 | Cc1c(C(=O)N2CC(N3CCN(C(=O)c4nccs4)CC3)C2)sc2cc(F)ccc12 [Cpd 684] | 645% | – | 31 nM | – | – | 0.004 µM | – | –
7 | O=C(c1ccccc1)N1CCN(C2CN(C(=O)c3cc4c(C(F)(F)F)cccc4s3)C2)CC1 [Cpd 330, 1-(Phenylcarbonyl)-4-(1-{[4-(trifluoromethyl)-1-benzothiophen-2-yl]carbonyl}azetidin-3-yl)piperazine] | 197% | – | 308 nM | – | – | 0.438 µM | – | –
8 | Cc1c(C(=O)N2CC(N3CCN(C(=O)c4cscn4)CC3)C2)sc2ccc(C(F)(F)F)cc12 [Cpd 898] | 520% | – | < 5 nM | – | – | 0.009 µM | – | –
9 | O=C(c1cscn1)N1CCN(C2CN(C(=O)c3sc4cc(F)c(C(F)(F)F)cc4c3Cl)C2)CC1 [Cpd 659] | 576% | – | 9 nM | – | 0.006 µM | – | – | –
10 | O=C(c1nccs1)N1CCN(C2CN(C(=O)c3sc4ccc(Cl)cc4c3C(F)(F)F)C2)CC1 [Cpd 896, 1-(1-{[5-Chloro-3-(trifluoromethyl)-1-benzothiophen-2-yl]carbonyl}azetidin-3-yl)-4-(1,3-thiazol-2-ylcarbonyl)piperazine] | 648% | 0.008 µM | < 5 nM | – | – | – | – | –
11 | O=C(c1cscn1)N1CCN(C2CN(C(=O)c3sc4ccc(Cl)cc4c3C(F)(F)F)C2)CC1 [Cpd 673] | 280% | 0.05 µM | 17 nM | – | – | – | – | –
12 | Cc1c(Cc2ccc(C(F)(F)F)cc2)cccc1C(=O)N1CC(N2CCN(C(=O)c3cscn3)CC2)C1 [Cpd 1009] | 706% | 0.589 µM | 65 nM | – | – | – | – | –
13 | O=C(c1ccc(Oc2cccc(Cl)c2)nc1)N1CC(N2CCN(C(=O)c3nccs3)CC2)C1 [Cpd 683] | 335% | 0.039 µM | 31 nM | – | – | – | – | –
14 | O=C(c1cscn1)N1CCN(C2CN(C(=O)c3ccc(-c4ccc(F)c(Cl)c4)cc3Cl)C2)CC1 [Cpd 265, 1-{1-[(3,3′-Dichloro-4′-fluorobiphenyl-4-yl)carbonyl]azetidin-3-yl}-4-(1,3-thiazol-4-ylcarbonyl)piperazine] | 162% | – | 19 nM | 643% | – | 0.0198 µM | – | 126%
15 | Cc1c(C(=O)N2CCN(C3CN(C(=O)c4cscn4)C3)CC2)sc2cc(C(F)(F)F)ccc12 [Cpd 705] | 487% | 0.012 µM | 99 nM | – | – | – | – | –

The next lines start with the values.

Row | 2-AG accumulation, % of vehicle control at 1 µM (MGL) | Kd (mutant MGL; [2]) | IC50 [1] | 2-AG accumulation, % of vehicle control at 10 µM (MGL) | Kd (mutant MGL; [3]) | Kd (mutant MGL; [4]) | Kd (mutant MGL; [5]) | 2-AG accumulation, % of vehicle control at 0.1 µM (MGL; compound 0.1 μM, read-out: Rat Brain 2AG % VehCntrl (%) @ 0.1 μM) | SMILES
16 | 780% | 0.067 µM | 53 nM | – | – | – | – | – | COc1ccc(C(=O)N2CC(N3CCN(C(=O)c4nccs4)CC3)C2)cc1-c1ccccc1 [Cpd 1168]
17 | 187% | 0.855 µM | 94 nM | – | – | – | – | – | O=C(c1cccc(-c2cccc(C(F)(F)F)c2)c1)N1CC(N2CCN(C(=O)c3cscn3)CC2)C1 [Cpd 1188]
18 | 823% | – | < 5 nM | – | 0.015 µM | – | – | – | O=C(c1nccs1)N1CCN(C2CN(C(=O)c3cccc4c3ccn4-c3ccc(F)cc3)C2)CC1 [Cpd 1320, 1-(4-Fluorophenyl)-4-({3-[4-(1,3-thiazol-2-ylcarbonyl)piperazin-1-yl]azetidin-1-yl}carbonyl)-1H-indole]
19 | 547% | – | 79 nM | – | 0.21 µM | – | – | – | N#Cc1ccccc1-n1ccc2cc(C(=O)N3CC(N4CCN(C(=O)c5cscn5)CC4)C3)ccc21 [Cpd 1182]
20 | 262% | 0.143 µM | 41 nM | – | – | – | – | – | O=C(c1cscn1)N1CCN(C2CN(C(=O)c3nn(-c4ccc(Cl)cc4Cl)c4c3CCC/C4=C\c3ccc(Cl)cc3)C2)CC1 [Cpd 1023]
21 | 258% | 0.014 µM | 59 nM | – | – | – | – | – | Cn1nc(-c2cccc(F)c2)c2cc(C(=O)N3CC(N4CCN(C(=O)c5nccs5)CC4)C3)ccc21 [Cpd 1170]
22 | 159% | 0.667 µM | 847 nM | – | – | – | – | – | O=C(c1cc(-c2ccccc2)cc(C(F)(F)F)c1)N1CC(N2CCN(C(=O)c3cscn3)CC2)C1 [Cpd 1259]
23 | 966% | 0.005 µM | < 5 nM | – | – | – | – | – | O=C(c1ccc(-n2nc3c(c2-c2ccc(Cl)cc2)CCCC3)cc1)N1CC(N2CCN(C(=O)c3nccs3)CC2)C1 [Cpd 1327]
24 | 609% | – | 7 nM | – | 0.031 µM | – | – | – | Cn1ccc2cc(C(=O)N3CC(N4CCN(C(=O)c5nccs5)CC4)C3)cc(-c3cccc(F)c3)c21 [Cpd 1066]
25 | 100% | 0.124 µM | 360 nM | – | – | – | – | – | O=C(c1ccc(-c2ccccc2)cc1)N1CCN(C2CN(C(=O)c3ccns3)C2)CC1 [Cpd 1235, 1-(Biphenyl-4-ylcarbonyl)-4-[1-(isothiazol-5-ylcarbonyl)azetidin-3-yl]piperazine]
26 | 722% | 0.002 µM | < 5 nM | – | – | – | – | – | O=C(c1ccc2c(-c3ccc(F)cc3)c[nH]c2c1)N1CC(N2CCN(C(=O)c3nccs3)CC2)C1 [Cpd 1317, 3-(4-Fluorophenyl)-6-({3-[4-(1,3-thiazol-2-ylcarbonyl)piperazin-1-yl]azetidin-1-yl}carbonyl)-1H-indole]
27 | 501% | – | 12 nM | – | 0.044 µM | – | – | – | Cn1ccc2cc(C(=O)N3CC(N4CCN(C(=O)c5nccs5)CC4)C3)cc(-c3ccc(F)cc3)c21 [Cpd 1101]
28 | 803% | – | < 5 nM | – | – | – | 0.01 µM | – | O=C(c1ccc(-c2nc(-c3ccc(Cl)c(Cl)c3)cs2)cc1)N1CC(N2CCN(C(=O)c3nccs3)CC2)C1 [Cpd 1331]
29 | 734% | – | 13 nM | – | – | – | 0.023 µM | – | Cc1ccc(-n2ccc3cc(C(=O)N4CC(N5CCN(C(=O)c6nccs6)CC5)C4)ccc32)cn1 [Cpd 1105, 1-(6-Methylpyridin-3-yl)-5-({3-[4-(1,3-thiazol-2-ylcarbonyl)piperazin-1-yl]azetidin-1-yl}carbonyl)-1H-indole]
30 | 472% | 0.24 µM | 11 nM | – | – | – | – | – | O=C(c1cccc(-c2cccc(C(F)(F)F)c2)c1)N1CC(N2CCN(C(=O)c3nccs3)CC2)C1 [Cpd 1093]
31 | 846% | 0.003 µM | 7 nM | – | – | – | – | – | O=C(c1nccs1)N1CCN(C2CN(C(=O)c3sc4cc(-c5ccc(C(F)(F)F)cc5)ccc4c3F)C2)CC1 [Cpd 1063]
